According to EP1035837B1, “LIPID COMPOSITIONS AND THEIR USE” (PHARES PHARMACEUTICAL RESEARCH N.V., priority 1997, dated 1999):

Assays:
[1] = Pro-liposome gel formulation work: effect of ethanol and drug concentration on drug solubility, gel formation and gel appearance on storage; type: physicochemical
Protocol: Approximately 10% of the total lipid and all the ethanol were weighed into an amber glass jar and mixed until all the lipid had dispersed. The antifungal drug was added to the lipid/ethanol mixture and further mixing was carried out to break up the drug particles. The remainder of the lipid was added and mixing was continued until all the lipid had been dispersed. The glycerol was then added and stirring was continued until a homogenous gel was obtained. It was clear and translucent with a sweet pleasant taste and could be applied directly to the mucosa. From about 1% to 10% or more, but preferably about 2% to 5% of a hydrophilic polymer or natural gum can be dispersed in powder form to render the preparation muco-adhesive. Compositions utilising lipid blends or lecithins which contain 45% PC, form liposomes on conversion with water. The drug is associated with the liposomes at very high levels, ie greater than 90%.
The preparation of the pro-liposome miconazole and clotrimazole gel was as described above. Early formulation work was carried out to find: • i) A gel formulation with enough ethanol to dissolve the miconazole and clotrimazole giving the gel a translucent appearance, but with […] as to obtain an optimum viscosity profile (Table 1). • ii) A gel formulation with not too much miconazole or clotrimazole to induce crystallisation of the drug in the gel (Table 2).
At this level of ethanol, miconazole drug crystallisation was not seen in 1% and 2.5% miconazole gals.

[2] = cited from earlier work
[3] = % encapsulation of drug into liposomes from pro-liposome gels (filtration through 200 nm filters, HPLC); type: physicochemical; details: Example 3 gel (90% PC, Tris base); average particle size of 1-5µ
Protocol: The % encapsulation of the antifungal drugs miconazole and clotrimazole was determined by filtration of the liposome dispersion and by HPLC analysis of the unfiltered and filtered solutions for drug content. The principle behind the filtration technique is that the liposomes (with encapsulated antifungal). can be passed through 200 nm filters, while unencapsulated drug particles remain too large to pass through the filters. Pro-liposome gels were prepared, containing 2.5% and 1% miconazole and 1% and 0.5% clotrimazole. […] The % encapsulation of drug would be expected to decrease if crystallisation occurred in the gels with time.
Using the method of Example 1, pro-liposome gels were made with various concentrations of amphotericin B. The % encapsulation of the amphotericin B into liposomes (in 0.1% suspensions of the gel formulations) was measured at 3 days, 1 month, 3 months and 6 months after pro-liposome preparation. The gels were stored at 4°C ;in sealed containers, protected from light (Table 4). […]

[4] = Table 1, ethanol 5 %, 45% PC lipid 20 %, drug 1 %, glycerol 74 %
[5] = Table 2, ethanol 5 %, 45%PC 20 %, drug 1 %, glycerol 74 %
[6] = Table 2, ethanol 5 %, 45%PC 20 %, glycerol 72.5 %, drug 2.5 % (clotrimazole line prints 1)
[7] = ethanol 2.5 %, 45% PC lipid 20 %, drug 1 %, glycerol 76.5 %
[8] = ethanol 10 %, 45% PC lipid 20 %, drug 1 %, glycerol 69 %
[9] = ethanol 15 %, 45% PC lipid 20 %, drug 1 %, glycerol 64 %

encapsulation into liposomes formed from the pro-liposome by addition of water [3] [%] | Compound | Initial Comments: drug solubility in ethanol + 10% of lipid [1, 4] | Initial Comments: drug solubility in ethanol + 10% of lipid [1, 5] | Initial Comments: drug solubility in ethanol + 10% of lipid [1, 6] | Initial Comments: drug solubility in ethanol + 10% of lipid [1, 7] | Initial Comments: drug solubility in ethanol + 10% of lipid [1, 8] | Initial Comments: drug solubility in ethanol + 10% of lipid [1, 9] | solubility in ethanol [2] | solubility in water [2]
– | Clc1ccc(COC(Cn2ccnc2)c2ccc(Cl)cc2Cl)c(Cl)c1 (stereo not drawn) [Miconazole, 1-[2-dichloro-β-[2,4-dichlorobenzyl)oxyphenethyl]imidazole mononitrate] | Miconazole soluble in ethanol + 10% of lipid. Clear, golden gel formed with good viscosity | Miconazole soluble in ethanol + 10% of lipid. Clear, golden gel formed with good viscosity | Miconazole soluble in ethanol + 10% of lipid. Clear, golden gel formed with good viscosity | Miconazole soluble in ethanol + 10% of lipid. Not enough ethanol to disperse all the lipid and form a gel | Miconazole soluble in ethanol + 10% of lipid. Clear, golden gel formed with runny viscosity | Miconazole soluble in ethanol + 10% of lipid. Clear, golden gel formed with very runny viscosity | very soluble | very slightly soluble
– | Clc1ccccc1C(c1ccccc1)(c1ccccc1)n1ccnc1 [Clotrimazole, 1-(o-chloro-a,a-diphenylbenzyl)imidazole] | Clotrimazole soluble in ethanol + 10% of lipid. Clear, golden gel formed with good viscosity | Clotrimazole soluble in ethanol + 10% of lipid. Clear, golden gel formed with good viscosity | Clotrimazole soluble in ethanol + 10% of lipid. Clear, golden gel formed with good viscosity | Clotrimazole insoluble in ethanol + 10% of lipid. Not enough ethanol to disperse all the lipid and form a gel | Clotrimazole soluble in ethanol + 10% of lipid. Clear, golden gel formed with runny viscosity | Clotrimazole soluble in ethanol + 10% of lipid. Clear, golden gel formed with very runny viscosity | soluble | insoluble
~100 | C[C@@H]1[C@H](O)[C@@H](C)/C=C/C=C/C=C/C=C/C=C/C=C/C=C/[C@H](O[C@@H]2O[C@H](C)[C@@H](O)[C@H](N)[C@@H]2O)C[C@@H]2O[C@](O)(C[C@@H](O)C[C@@H](O)[C@H](O)CC[C@@H](O)C[C@@H](O)CC(=O)O[C@H]1C)C[C@H](O)[C@H]2C(=O)O [Amphotericin B, amphotericin B] | – | – | – | – | – | – | – | –
